Assay results: patent US8945865B2, “Method for screening for compound capable of enhancing or inhibiting OATP1B1 transport activity, and method for determining expression level of OATP1B1” (Eisai R&D Management Co., Ltd., priority 2011, dated 2015)

Tests used:
OATP1B1 [1] = target: T1, OATP1B1 (Homo sapiens, UniProt Q9Y6L6, N130D); experiment: OATP1B1 inhibition, conventional RI method (radiolabeled estradiol-17β-D-glucuronide)
T1 sequence (Q9Y6L6 1-691 N130D): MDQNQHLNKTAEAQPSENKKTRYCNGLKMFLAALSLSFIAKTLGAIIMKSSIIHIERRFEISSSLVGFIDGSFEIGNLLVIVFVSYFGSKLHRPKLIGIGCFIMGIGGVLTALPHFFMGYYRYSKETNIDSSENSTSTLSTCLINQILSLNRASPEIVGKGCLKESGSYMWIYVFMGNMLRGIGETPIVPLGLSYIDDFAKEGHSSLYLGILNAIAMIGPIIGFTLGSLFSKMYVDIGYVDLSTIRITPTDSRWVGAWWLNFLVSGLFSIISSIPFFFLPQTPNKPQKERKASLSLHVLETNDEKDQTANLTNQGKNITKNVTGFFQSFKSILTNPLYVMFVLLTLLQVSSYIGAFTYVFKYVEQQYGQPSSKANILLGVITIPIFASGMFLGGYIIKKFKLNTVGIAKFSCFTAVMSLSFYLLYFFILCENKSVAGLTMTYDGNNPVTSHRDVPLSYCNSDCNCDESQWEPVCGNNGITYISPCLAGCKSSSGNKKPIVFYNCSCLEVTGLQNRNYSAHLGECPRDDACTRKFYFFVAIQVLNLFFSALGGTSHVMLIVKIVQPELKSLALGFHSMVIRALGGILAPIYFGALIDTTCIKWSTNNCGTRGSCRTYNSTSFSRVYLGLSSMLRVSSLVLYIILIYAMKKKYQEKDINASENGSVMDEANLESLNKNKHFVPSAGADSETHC
Method: In the conventional RI method, radiolabeled estradiol-17β-D-glucuronide (EG) was used. […] Subsequently, the cells were washed with an ice-cold KH buffer three times and then solubilized with an aqueous 0.1 N NaOH solution, and after neutralization with an aqueous 1 N HCl solution, the radioactivity taken up by the cells was measured.

OATP1B1 [2] = target: T1, OATP1B1; experiment: OATP1B1 inhibition, DCF method (fluorescent substrate)
OATP1B1 [3] = target: T1, OATP1B1; experiment: Effect of known OATP inhibitors on OATP1B1-mediated uptake of DCF; settings: DCF 3 μM, inhibitor 10 and 30 μM
human hepatocytes [4] = experiment: Time/temperature-dependent uptake of DCF by human hepatocytes; type: in vitro ADME; settings: 37° C. versus 4° C., 0.5 to 5 min, cryopreserved human hepatocytes
Method: Cryopreserved human hepatocytes and cryopreserved hepatocytes recovery medium (CHRM) were purchased from Invitrogen Corporation. The cryopreserved human hepatocytes were thawed in a water bath at 37° C. and were added to the CHRM prewarmed at 37° C. After centrifugation at room temperature, the supernatant was discarded, and a hepatocyte suspension at 1×10^6 cells/mL was prepared in ice-cold KH buffer and stored on ice. […] The hepatocytes were incubated at 37° C. and 4° C., respectively, for 0 to 5 minutes. […] Specifically, 80 μL of the hepatocyte suspension was collected and added to a centrifugal tube containing 50 μL of oil (specific gravity: 1.015, Sigma-Aldrich Co.) and 100 μL of an aqueous 2 N NaOH solution under the oil layer, and centrifugation was performed at 10,000 g for 20 seconds. By the centrifugation, the hepatocytes passed through the oil layer and were solubilized with an aqueous 2 N NaOH solution.

human hepatocytes [5] = system: human hepatocytes
Method: (§1) Human hepatocytes were prepared as in Example 6, and a hepatocyte suspension was prepared at 1×10^6 cells/mL.

OATP1B1 [6] = target: T1, OATP1B1
Method: The Km and Vmax were calculated by the following Michaelis-Menten equation. […] Each parameter represents the mean value of four independent experiments.

OAT3 = target: T2, OAT3 (Homo sapiens, UniProt Q8TCC7); experiment: Substrate specificity of fluorescein derivatives on OAT3 (same method); settings: FIG. 1(b), same method as Example 1
T2 sequence (Q8TCC7 1-542): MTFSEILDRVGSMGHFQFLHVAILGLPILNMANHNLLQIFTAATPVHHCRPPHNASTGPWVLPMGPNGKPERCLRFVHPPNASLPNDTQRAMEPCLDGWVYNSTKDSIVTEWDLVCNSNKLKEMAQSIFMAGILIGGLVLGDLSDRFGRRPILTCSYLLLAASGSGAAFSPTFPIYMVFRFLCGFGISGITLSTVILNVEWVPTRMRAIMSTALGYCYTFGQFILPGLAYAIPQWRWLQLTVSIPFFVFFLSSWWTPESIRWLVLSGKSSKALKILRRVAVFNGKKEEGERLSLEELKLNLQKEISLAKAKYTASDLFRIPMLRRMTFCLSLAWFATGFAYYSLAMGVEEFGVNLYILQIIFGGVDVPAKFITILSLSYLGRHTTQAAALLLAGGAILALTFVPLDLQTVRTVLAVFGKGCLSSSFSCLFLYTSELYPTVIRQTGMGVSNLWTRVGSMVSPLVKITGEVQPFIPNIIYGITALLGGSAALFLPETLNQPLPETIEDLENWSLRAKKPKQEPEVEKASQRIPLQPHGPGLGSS
Method: The above cells were seeded in a poly-D-lysine-coated dish at 4×10^5 cells/well. The medium was replaced with a KH buffer, and various fluorescent dyes dissolved in DMSO were added to the respective HEK-293 cells such that the final concentration in the KH buffer was 1 μM, followed by incubation at 37° C. for 5 minutes. Subsequently, the cells were washed with an ice-cold KH buffer three times and were then solubilized with an aqueous 0.1 N NaOH solution, and the fluorescence intensity of the fluorescent dye taken up by the cells was measured (excitation wavelength: 490 nm, fluorescence wavelength: 515 nm).
In order to quantitatively measure the amount of fluorescent compound taken up by the cells, a calibration curve showing the fluorescence intensity per unit fluorescent compound was prepared in advance. Based on this calibration curve, the measured fluorescence intensity was converted into the fluorescent compound per well (pmol/well or μL/well), which was divided by the total protein amount (mg protein/well) of the solubilized cells (standardization) to convert into the fluorescent compound amount per unit protein (pmol/mg protein or μL/mg protein).

OATP1B1 [7] = target: T1, OATP1B1; experiment: Substrate specificity of fluorescein derivatives: uptake by HEK-293 cells forcedly expressing OATP1B1; type: in vitro ADME; set-up: Expression vectors, pcDNA3.1 vectors (Invitrogen Corporation), carrying the resulting genes were respectively introduced into HEK-293 cells; expressed in transfected cells; host or cells: HEK-293 cells, pcDNA3.1 vector, hygromycin selection; settings: 1 μM dye, 37° C., 5 minutes, compared with OATP1B3 and OATP2B1
Method: Complementary DNAs of OATP1B1, OATP1B3, and OATP2B1 (respectively shown by SEQ ID NOs: 2, 3, and 4) were cloned by RT-PCR using human liver total RNA (Invitrogen Corporation) as a template and the following primers: […]
Expression vectors, pcDNA3.1 vectors (Invitrogen Corporation), carrying the resulting genes were respectively introduced into HEK-293 cells by lipofection using Lipofectamin 2000 (Invitrogen Corporation). The cells were cultured in Hygromycin-containing selective media to produce HEK-293 cells forcedly expressing OATP1B1, OATP1B3, and OATP2B1, respectively.

OATP1B1 [8] = target: T1, OATP1B1; experiment: Time profiles of the uptake of DCF by OATP1B1; type: in vitro ADME; set-up: Expression vectors, pcDNA3.1 vectors (Invitrogen Corporation), carrying the resulting genes were respectively introduced into HEK-293 cells; expressed in transfected cells; host or cells: HEK-293 cells, pcDNA3.1 vector, hygromycin selection; settings: 0.1, 1 and 10 μM DCF, 37° C., 1 to 30 min
Method: The cells were sampled at the incubation times of 1 min, 5 min, 10 min, and 30 min, washed with an ice-cold KH buffer three times, and then solubilized with an aqueous 0.1 N NaOH solution, and the fluorescence intensity of the fluorescent dye taken up by the cells was measured as in Example 1 (excitation wavelength: 490 nm, fluorescence wavelength: 515 nm).

human hepatocytes [9] = experiment: Effect of OATP inhibitors on DCF uptake by human hepatocytes; settings: inhibitor final 10 μM, 37° C.; reduced to the level comparable to the uptake at 4° C.
Method: as §1

[10] = read-out: Ki (EG), substrate radiolabeled EG 0.01 μM, HEK-293 cells forcedly expressing OATP1B1, 37° C., 5 minutes
[11] = read-out: Ki (DCF), substrate DCF 3 μM, HEK-293 cells forcedly expressing OATP1B1, 37° C., 5 minutes

Row | SMILES | Ki (OATP1B1 [1]) | Ki (OATP1B1 [2]) | further results
1 | CC[C@H]1OC(=O)[C@H](C)[C@@H](O[C@H]2C[C@@](C)(OC)[C@@H](O)[C@H](C)O2)[C@H](C)[C@@H](O[C@@H]2O[C@H](C)C[C@H](N(C)C)[C@H]2O)[C@](C)(O)C[C@@H](C)C(=O)[C@H](C)[C@@H](O)[C@]1(C)O [Erythromycin] | 4140 nM | 6990 nM | –
2 | CN(Cc1cnc2nc(N)nc(N)c2n1)c1ccc(C(=O)N[C@@H](CCC(=O)O)C(=O)O)cc1 [Methotrexate] | > 300000 nM | > 300000 nM | –
3 | CC(=O)N1CCN(c2ccc(OCC3COC(Cn4ccnc4)(c4ccc(Cl)cc4Cl)O3)cc2)CC1 (stereo not drawn) [Ketoconazole] | 12200 nM | 15600 nM | –
4 | C[C@]12CC[C@@H]3c4ccc(O)cc4CC[C@H]3[C@@H]1CC[C@@H]2O[C@@H]1O[C@H](C(=O)O)[C@@H](O)[C@H](O)[C@H]1O [estradiol-17β-D-glucuronide] | – | – | concentration dependence of inhibition of OATP1B1-mediated DCF uptake (OATP1B1 [3]): inhibition depends on the concentrations
5 | C[C@]12CC[C@@H]3c4ccc(OS(=O)(=O)O)cc4CC[C@H]3[C@@H]1CCC2=O [ES, estrone-3-sulfate] | – | – | Ki (OATP1B1 [1]; [10]): 78 nM; Ki (OATP1B1 [2]; [11]): 79 nM; concentration dependence of inhibition of OATP1B1-mediated DCF uptake (OATP1B1 [3]): inhibition depends on the concentrations
6 | O=C1OC2(c3cc(Cl)c(O)cc3Oc3cc(O)c(Cl)cc32)c2ccccc21 [DCF, Dichlorofluorescein] | – | – | transporter-mediated uptake of DCF by human hepatocytes (human hepatocytes [4]): increases over time; Km (human hepatocytes [5]): 38.6 µM; Km (OATP1B1 [6]): 7.22 µM; substrate for OAT3 (OAT3): not a satisfactory substrate; uptake of fluorescent dye among the combinations of fluorescent dye and transporters tested (OATP1B1 [7]): highest uptake; uptake amount of DCF by HEK-293 cells forcedly expressing OATP1B1 (OATP1B1 [8]): increases over time and depends on the concentration of added DCF
7 | CN/C(=N/CCSCc1nc[nH]c1C)NC#N [Cimetidine] | > 300000 nM | > 300000 nM | –
8 | C[C@H](CCC(=O)NCCS(=O)(=O)O)[C@H]1CC[C@H]2[C@@H]3[C@H](O)C[C@@H]4C[C@H](O)CC[C@]4(C)[C@H]3C[C@H](O)[C@]12C [Taurocholic acid] | 17500 nM | 8680 nM | –
9 | O=C1OC(c2ccc(O)c(S(=O)(=O)O)c2)(c2ccc(O)c(S(=O)(=O)O)c2)c2c(Br)c(Br)c(Br)c(Br)c21 [BSP, bromosulfophthalein] | – | – | Ki (OATP1B1 [1]; [10]): 73 nM; DCF uptake by human hepatocytes in presence of inhibitor (human hepatocytes [9]): reduced; Ki (OATP1B1 [2]; [11]): 92 nM
10 | C=CC[C@@H]1/C=C(\C)C[C@H](C)C[C@H](OC)[C@H]2O[C@@](O)(C(=O)C(=O)N3CCCC[C@H]3C(=O)O[C@H](/C(C)=C/[C@@H]3CC[C@@H](O)[C@H](OC)C3)[C@H](C)[C@@H](O)CC1=O)[C@H](C)C[C@@H]2OC [Tacrolimus] | 890 nM | 1270 nM | –
11 | CO[C@H]1/C=C/O[C@@]2(C)Oc3c(C)c(O)c4c(O)c(c(/C=N/N5CCN(C)CC5)c(O)c4c3C2=O)NC(=O)/C(C)=C\C=C\[C@H](C)[C@H](O)[C@@H](C)[C@@H](O)[C@@H](C)[C@H](OC(C)=O)[C@@H]1C [Rifampicin, rifampicin] | 290 nM | 260 nM | –
